Data taken from ChEMBL document CHEMBL4382249, “1-Arylsulfonyl indoline-benzamides as a new antitubulin agents, with inhibition of histone deacetylase” (Eur J Med Chem, 2019).

How the values were obtained:
[1] = system: KB; assay: Growth inhibition of human KB cells after 48 hrs by SRB assay; format: functional, cell-based
[2] = biological target: Histone deacetylase 9 (Homo sapiens, UniProt Q9UKV0); assay: Inhibition of human HDAC9 using fluorogenic p53 (379-382) peptide RHKK(Ac) as substrate by fluorescence assay
[3] = biological target: Tubulin (Bos taurus) (UniProt Q6B856+Q862L2+Q862F3); conditions: at 5 µM
[4] = biological target: T1, Histone deacetylase 7 (Homo sapiens, UniProt Q8WUI4); assay: Inhibition of human HDAC7 using fluorogenic p53 (379-382) peptide RHKK(Ac) as substrate by fluorescence assay
T1 sequence (Q8WUI4 whole entry): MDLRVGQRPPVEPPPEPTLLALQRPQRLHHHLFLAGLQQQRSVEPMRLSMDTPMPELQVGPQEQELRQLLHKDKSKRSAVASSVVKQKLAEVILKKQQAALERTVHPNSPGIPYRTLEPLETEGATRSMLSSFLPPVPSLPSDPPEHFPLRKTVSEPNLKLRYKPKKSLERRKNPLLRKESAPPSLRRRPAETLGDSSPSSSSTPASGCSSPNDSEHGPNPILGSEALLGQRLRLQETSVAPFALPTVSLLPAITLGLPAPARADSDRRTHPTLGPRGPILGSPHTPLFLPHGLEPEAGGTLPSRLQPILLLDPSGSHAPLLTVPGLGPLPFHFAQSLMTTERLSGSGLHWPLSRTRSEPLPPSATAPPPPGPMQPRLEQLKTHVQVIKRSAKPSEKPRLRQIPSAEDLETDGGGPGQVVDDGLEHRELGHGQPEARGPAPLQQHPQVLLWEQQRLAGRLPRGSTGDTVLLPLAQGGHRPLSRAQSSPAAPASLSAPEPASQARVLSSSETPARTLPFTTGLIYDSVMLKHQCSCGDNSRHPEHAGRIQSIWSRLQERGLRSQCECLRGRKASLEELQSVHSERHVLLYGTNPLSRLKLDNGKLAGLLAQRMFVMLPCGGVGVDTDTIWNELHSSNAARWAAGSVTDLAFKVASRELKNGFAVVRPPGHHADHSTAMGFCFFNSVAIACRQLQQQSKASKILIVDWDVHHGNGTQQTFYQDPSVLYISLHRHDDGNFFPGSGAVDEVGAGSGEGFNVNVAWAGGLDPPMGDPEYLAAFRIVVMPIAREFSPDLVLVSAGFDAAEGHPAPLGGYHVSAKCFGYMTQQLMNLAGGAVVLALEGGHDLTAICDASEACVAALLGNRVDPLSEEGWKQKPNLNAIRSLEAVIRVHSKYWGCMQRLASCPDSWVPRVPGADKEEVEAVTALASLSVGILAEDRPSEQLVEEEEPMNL

[5] = biological target: Histone deacetylase 2 (Homo sapiens, UniProt Q92769); assay: Inhibition of human HDAC2 using RHKKAc as substrate by fluorescence assay
Chain of Histone deacetylase 2 (Q92769 whole entry): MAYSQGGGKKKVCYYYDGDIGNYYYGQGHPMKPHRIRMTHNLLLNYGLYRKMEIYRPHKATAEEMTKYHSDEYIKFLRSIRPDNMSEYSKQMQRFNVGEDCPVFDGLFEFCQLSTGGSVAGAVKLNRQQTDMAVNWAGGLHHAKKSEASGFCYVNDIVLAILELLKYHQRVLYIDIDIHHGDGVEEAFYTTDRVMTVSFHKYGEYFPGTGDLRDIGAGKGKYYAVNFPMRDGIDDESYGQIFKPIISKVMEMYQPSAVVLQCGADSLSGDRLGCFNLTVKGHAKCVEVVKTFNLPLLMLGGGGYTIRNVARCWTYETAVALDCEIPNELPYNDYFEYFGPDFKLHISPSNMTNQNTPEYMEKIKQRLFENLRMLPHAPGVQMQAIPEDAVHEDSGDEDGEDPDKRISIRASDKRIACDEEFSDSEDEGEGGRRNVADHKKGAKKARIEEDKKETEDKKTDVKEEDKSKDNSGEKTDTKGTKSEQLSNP

Chain of Histone deacetylase 9 (Q9UKV0 whole entry): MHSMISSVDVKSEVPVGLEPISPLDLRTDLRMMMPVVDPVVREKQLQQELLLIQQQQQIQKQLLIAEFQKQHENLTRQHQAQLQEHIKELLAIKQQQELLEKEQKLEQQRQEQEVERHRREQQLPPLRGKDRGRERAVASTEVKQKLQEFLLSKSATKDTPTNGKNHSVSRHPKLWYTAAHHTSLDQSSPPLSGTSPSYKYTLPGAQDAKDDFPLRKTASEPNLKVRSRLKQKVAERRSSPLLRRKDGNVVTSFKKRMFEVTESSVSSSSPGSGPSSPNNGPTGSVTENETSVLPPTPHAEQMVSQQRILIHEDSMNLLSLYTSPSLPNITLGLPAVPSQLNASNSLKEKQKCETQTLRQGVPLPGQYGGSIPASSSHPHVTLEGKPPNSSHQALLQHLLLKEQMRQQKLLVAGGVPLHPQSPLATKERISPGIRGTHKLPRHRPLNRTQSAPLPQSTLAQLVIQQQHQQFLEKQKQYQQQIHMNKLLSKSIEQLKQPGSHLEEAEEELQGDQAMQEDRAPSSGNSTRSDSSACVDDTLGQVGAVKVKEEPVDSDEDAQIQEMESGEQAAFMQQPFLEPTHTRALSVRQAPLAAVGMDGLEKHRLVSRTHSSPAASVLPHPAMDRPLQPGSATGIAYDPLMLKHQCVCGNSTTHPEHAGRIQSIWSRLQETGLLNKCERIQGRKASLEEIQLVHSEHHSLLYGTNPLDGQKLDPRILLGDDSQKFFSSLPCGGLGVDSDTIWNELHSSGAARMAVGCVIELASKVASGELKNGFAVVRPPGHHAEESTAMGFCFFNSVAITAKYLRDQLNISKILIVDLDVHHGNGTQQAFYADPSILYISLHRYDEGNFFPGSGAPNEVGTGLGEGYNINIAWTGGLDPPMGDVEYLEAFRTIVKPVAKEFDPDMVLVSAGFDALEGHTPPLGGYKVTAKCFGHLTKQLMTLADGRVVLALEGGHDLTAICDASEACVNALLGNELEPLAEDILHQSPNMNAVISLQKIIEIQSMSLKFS

## COc1ccc(S(=O)(=O)N2CCc3cccc(NCc4ccc(C(=O)Nc5ccccc5N)cc4)c32)cc1
[1]
  IC50: 49 nM
[2]
  IC50: Not Active
[3]
  inhibition: 85.2%
[4]
  IC50: Not Active
[5]
  IC50: 662 nM
